Measurements as given in patent publication US4605615A, “L-glutamic acid oxidase (H2 O2 -generating), its production and analytical method therefor” (priority 1982, dated 1986).
Read-outs that look alike come from different tables or passages of the source. Values belong to the molecule of their own block, whether it stands above or below them.

Columns and labels:
A7700 enzyme [1] = assay: Substrate specificity: relative activity on various substrates; type: biochemical, Streptomyces sp. A7700
Experimental: (§1) The above mixture (3.0 ml) was introduced into a quartz cell at 37° C., to which was immediately added and mixed the enzyme solution (50 μl), in a constant temperature (37° C.) cell-holder of a spectrophotometer. Then the mixture was incubated for exactly 5 minutes after 2 minutes of mixing with the enzyme solution, and the variation of absorption (optical density ΔA545) at 545 nm is measured.
(§2) The activity of the enzyme is calculated by the following equation: [formula] 2. Substrate specificity:
(§3) The relative activities (%) of enzyme L-glutamic acid oxidases produced by Streptomyces sp. A7700 (hereinafter designated as A7700 enzyme) and by Streptomyces sp. A8063 (hereinafter designated as A8063 enzyme), respectively, on various substrates as compared with L-glutamic acid, are measured.

A8063 enzyme [2] = assay: as above; type: biochemical, Streptomyces sp. A8063
Experimental: as §1, §2, §3

A8063 enzyme [3] = conditions: read-out: Km value; A8063 enzyme against L-glutamic acid
A7700 enzyme [4] = conditions: read-out: Km value; A7700 enzyme against L-glutamic acid
A8063 enzyme [5] = assay: Effect of metal ions on enzyme activity; type: biochemical, Streptomyces sp. A8063; conditions: metalic salt 1.0 mM
Experimental: as §1, §2
(§4) The effect of metal ions is shown in Table 5, in which ions other than Cu^++ show no effect on the enzymes.

A7700 enzyme [6] = assay: Effect of metal ions on enzyme activity; type: biochemical, Streptomyces sp. A7700; conditions: metalic salt 1.0 mM
Experimental: as §1, §2, §4

A8063 enzyme [7] = assay: Effect of surface active agents and other substances on enzyme activity; type: biochemical, Streptomyces sp. A8063
Experimental: as §1
(§5) The activity of the enzyme is calculated by the following equation: [formula] 2.

A7700 enzyme [8] = assay: as above; type: biochemical, Streptomyces sp. A7700
Experimental: as §1, §5

- Activity of enzyme on substrate (in words) (A7700 enzyme [1]): specific activity
- Relative activity (%) on substrate as compared with L-glutamic acid (A7700 enzyme [1]): 100%
- Activity of enzyme on substrate (in words) (A8063 enzyme [2]): specific activity
- Relative activity (%) on substrate as compared with L-glutamic acid (A8063 enzyme [2]): 100%
- Km (A8063 enzyme [3]): ~1100 µM
- Km (A7700 enzyme [4]): ~560 µM
Compound: N[C@@H](CCC(=O)O)C(=O)O [L-glutamic acid]

Compound: [Cl-].[Cl-].[Zn+2] [ZnCl2]
- Relative activity (%) (A8063 enzyme [5]): 110.7%
- Relative activity (%) (A7700 enzyme [6]): 106.1%

Compound: NO [hydroxylamine]
- Relative activity (%) on substrate as compared with L-glutamic acid (A7700 enzyme [1]): 0%
- Relative activity (%) on substrate as compared with L-glutamic acid (A8063 enzyme [2]): 0%

Compound: [N-]=[N+]=[N-].[Na+] [NaN3]
- Relative activity (%) (A8063 enzyme [7]; A8063, additive 10 mM): 102.6%
- Effect of additive on enzyme activity (in words) (A8063 enzyme [7]; A8063 enzyme): not inhibited
- Relative activity (%) (A7700 enzyme [8]; A7700, additive 10 mM): 101.4%
- Effect of additive on enzyme activity (in words) (A7700 enzyme [8]; A7700 enzyme): not inhibited

Compound: O=C(O)c1cc[c]([Hg][Cl])cc1 [PCMB]
- Relative activity (%) (A8063 enzyme [7]; A8063, additive 0.002%): 98.2%
- Relative activity (%) (A7700 enzyme [8]; A7700, additive 0.002%): 107.6%

Compound: [Cl][Fe]([Cl])[Cl] [FeCl3]
- Relative activity (%) (A8063 enzyme [5]): 103.0%
- Relative activity (%) (A7700 enzyme [6]): 109.2%

- Relative activity (%) on substrate as compared with L-glutamic acid (A7700 enzyme [1]): 0%
- Relative activity (%) on substrate as compared with L-glutamic acid (A8063 enzyme [2]): 0%
Compound: N[C@@H](Cc1c[nH]cn1)C(=O)O [L-histidine]

- Relative activity (%) on substrate as compared with L-glutamic acid (A7700 enzyme [1]): 0%
- Relative activity (%) on substrate as compared with L-glutamic acid (A8063 enzyme [2]): 0%
Compound: C[C@@H](O)[C@H](N)C(=O)O [L-threonine]

Compound: [Cl][Cu][Cl] [CuCl2]
- Relative activity (%) (A8063 enzyme [5]): 62.1%
- Relative activity (%) (A7700 enzyme [6]): 50.3%

Compound: CCCCCCCCCCCCOS(=O)(=O)O [SDS]
- Relative activity (%) (A8063 enzyme [7]; A8063, additive 0.1%): 93.1%
- Relative activity (%) (A7700 enzyme [8]; A7700, additive 0.1%): 106.3%

Compound: [Cl][Mn][Cl] [MnCl2]
- Relative activity (%) (A8063 enzyme [5]): 105.7%
- Relative activity (%) (A7700 enzyme [6]): 108.6%

- Relative activity (%) on substrate as compared with L-glutamic acid (A7700 enzyme [1]): 0%
- Relative activity (%) on substrate as compared with L-glutamic acid (A8063 enzyme [2]): 0%
Compound: NCc1ccccc1 [benzylamine]

- Relative activity (%) on substrate as compared with L-glutamic acid (A7700 enzyme [1]): 0%
- Relative activity (%) on substrate as compared with L-glutamic acid (A8063 enzyme [2]): 0%
Compound: CC[C@H](C)[C@H](N)C(=O)O [L-isoleucine]

- Relative activity (%) on substrate as compared with L-glutamic acid (A7700 enzyme [1]): 0%
- Relative activity (%) on substrate as compared with L-glutamic acid (A8063 enzyme [2]): 0%
Compound: N[C@H](CCC(=O)O)C(=O)O [D-glutamic acid]

Compound: [Cl][Ni][Cl] [NiCl2]
- Relative activity (%) (A8063 enzyme [5]): 102.3%
- Relative activity (%) (A7700 enzyme [6]): 101.8%

- Relative activity (%) on substrate as compared with L-glutamic acid (A7700 enzyme [1]): 0%
- Relative activity (%) on substrate as compared with L-glutamic acid (A8063 enzyme [2]): 0%
Compound: CC(C)[C@H](N)C(=O)O [L-valine]

Compound: [Cl-].[Cl-].[Co+2] [CoCl2]
- Relative activity (%) (A8063 enzyme [5]): 98.0%
- Relative activity (%) (A7700 enzyme [6]): 99.4%

Compound: [Ca+2].[Cl-].[Cl-] [CaCl2]
- Relative activity (%) (A8063 enzyme [5]): 103.0%
- Relative activity (%) (A7700 enzyme [6]): 98.8%

Compound: [Cl-].[Cl-].[Mg+2] [MgCl2]
- Relative activity (%) (A8063 enzyme [5]): 103.4%
- Relative activity (%) (A7700 enzyme [6]): 102.5%

- Relative activity (%) on substrate as compared with L-glutamic acid (A7700 enzyme [1]): 0%
- Relative activity (%) on substrate as compared with L-glutamic acid (A8063 enzyme [2]): 0%
Compound: N[C@@H](Cc1ccccc1)C(=O)O [L-phenylalanine]

Compound: CCCCCCCCCCCCCCCC[N+](C)(C)C [CTACl]
- Relative activity (%) (A8063 enzyme [7]; A8063, additive 0.1%): 94.2%
- Relative activity (%) (A7700 enzyme [8]; A7700, additive 0.1%): 98.6%

- Relative activity (%) on substrate as compared with L-glutamic acid (A7700 enzyme [1]): 0%
- Relative activity (%) on substrate as compared with L-glutamic acid (A8063 enzyme [2]): 0%
Compound: C[C@H](N)C(=O)O [L-alanine]

- Relative activity (%) (A8063 enzyme [7]; A8063, additive 0.01 mM): 97.1%
- Effect of additive on enzyme activity (in words) (A8063 enzyme [7]; A8063 enzyme): not affected
- Relative activity (%) (A7700 enzyme [8]; A7700, additive 0.01 mM): 88.9%
- Effect of additive on enzyme activity (in words) (A7700 enzyme [8]; A7700 enzyme): not affected
Compound: Cc1cc2nc3c(=O)[nH]c(=O)nc-3n(C[C@H](O)[C@H](O)[C@H](O)COP(=O)(O)O)c2cc1C [FMN]

Compound: NCCCC[C@H](N)C(=O)O [L-lysine]
- Relative activity (%) on substrate as compared with L-glutamic acid (A7700 enzyme [1]): 0%
- Relative activity (%) on substrate as compared with L-glutamic acid (A8063 enzyme [2]): 0%

- Relative activity (%) on substrate as compared with L-glutamic acid (A7700 enzyme [1]): 0%
- Relative activity (%) on substrate as compared with L-glutamic acid (A8063 enzyme [2]): 0%
Compound: CSCC[C@H](N)C(=O)O [L-methionine]

- Relative activity (%) on substrate as compared with L-glutamic acid (A7700 enzyme [1]): 0%
- Relative activity (%) on substrate as compared with L-glutamic acid (A8063 enzyme [2]): 0%
Compound: CCCCN [butylamine]

Compound: CN [methylamine]
- Relative activity (%) on substrate as compared with L-glutamic acid (A7700 enzyme [1]): 0%
- Relative activity (%) on substrate as compared with L-glutamic acid (A8063 enzyme [2]): 0%

Compound: N[C@@H](Cc1ccc(O)cc1)C(=O)O [L-tyrosine]
- Relative activity (%) on substrate as compared with L-glutamic acid (A7700 enzyme [1]): 0%
- Relative activity (%) on substrate as compared with L-glutamic acid (A8063 enzyme [2]): 0%

Compound: O=C(O)CN(CCN(CC(=O)O)CC(=O)O)CC(=O)O [EDTA]
- Effect of additive on enzyme activity (in words) (A8063 enzyme [7]): lack of effect
- Relative activity (%) (A8063 enzyme [7]): 100.7%
- Effect of additive on enzyme activity (in words) (A7700 enzyme [8]): lack of effect
- Relative activity (%) (A7700 enzyme [8]): 93.8%

- Relative activity (%) on substrate as compared with L-glutamic acid (A7700 enzyme [1]): 0%
- Relative activity (%) on substrate as compared with L-glutamic acid (A8063 enzyme [2]): 0%
Compound: N[C@@H](CO)C(=O)O [L-serine]

Compound: N=C(N)NCCC[C@H](N)C(=O)O [L-arginine]
- Relative activity (%) on substrate as compared with L-glutamic acid (A7700 enzyme [1]): 0%
- Relative activity (%) on substrate as compared with L-glutamic acid (A8063 enzyme [2]): 0%

- Relative activity (%) (A8063 enzyme [7]; A8063, additive 0.01 mM): 100.7%
- Effect of additive on enzyme activity (in words) (A8063 enzyme [7]; A8063 enzyme): not affected
- Relative activity (%) (A7700 enzyme [8]; A7700, additive 0.01 mM): 100.7%
- Effect of additive on enzyme activity (in words) (A7700 enzyme [8]; A7700 enzyme): not affected
Compound: Cc1cc2nc3c(=O)[nH]c(=O)nc-3n(C[C@H](O)[C@H](O)[C@H](O)COP(=O)(O)OP(=O)(O)OC[C@H]3O[C@@H](n4cnc5c(N)ncnc54)[C@H](O)[C@@H]3O)c2cc1C [FAD]

Compound: [Ba+2].[Cl-].[Cl-] [BaCl2]
- Relative activity (%) (A8063 enzyme [5]): 103.7%
- Relative activity (%) (A7700 enzyme [6]): 102.5%

Compound: C[C@H](CCC(=O)O)[C@H]1CC[C@H]2[C@@H]3[C@H](O)C[C@@H]4C[C@H](O)CC[C@]4(C)[C@H]3C[C@H](O)[C@]12C [sodium cholate]
- Relative activity (%) (A8063 enzyme [7]; A8063, additive 0.1%): 100.0%
- Relative activity (%) (A7700 enzyme [8]; A7700, additive 0.1%): 104.2%

Compound: CCN [ethylamine]
- Relative activity (%) on substrate as compared with L-glutamic acid (A7700 enzyme [1]): 0%
- Relative activity (%) on substrate as compared with L-glutamic acid (A8063 enzyme [2]): 0%

- Relative activity (%) on substrate as compared with L-glutamic acid (A7700 enzyme [1]): 0%
- Relative activity (%) on substrate as compared with L-glutamic acid (A8063 enzyme [2]): 0%
Compound: CCCN [propylamine]

- Relative activity (%) on substrate as compared with L-glutamic acid (A7700 enzyme [1]): 0%
- Relative activity (%) on substrate as compared with L-glutamic acid (A8063 enzyme [2]): 0%
Compound: NCCc1ccc(O)cc1 [tyramine]
